Here are results for eight compounds from patent publication US9392789B2, “Compositions of dibromomalonamide and their use as biocides” (Dow Global Technologies LLC, priority 2009, dated 2016).

Where “and” joins values, the source holds several entries; their conditions need not be identical. Equal entries are not always repeated.

This test deals with mixture of Pseudomonas aeruginosa, Klebsiella pneumoniae, Staphylococcus aureus, and Bacillus subtilis. Put plainly: Growth inhibition assay (microtiter plate-based synergy assay). Type of test: cell-based. The conditions noted are these: 24 h; for I90 value: single active, concentration for ~90% inhibition of growth. From the text:
Growth Inhibition Assay. […] Regardless of the mechanism of action, the impact of a biocide (or combination of biocides) can be measured over time on the basis of an increase in the size of the community.
The assay measures the efficacy of one or more biocides at preventing growth of a consortium of bacteria in a dilute mineral salts medium. The medium contains (in mg/l) the following components: FeCl3.6H2O (1); CaCl2.2H2O (10); MgSO4.7H2O (22.5); (NH4)2SO4 (40); KH2PO4 (10); K2HPO4 (25.5); Yeast Extract (10); and glucose (100). After all components are added to deionized water, the pH of the medium is adjusted to 7.5. Following filter sterilization, aliquots are dispensed in 100 ul quantities to sterile microtiter plate wells. Dilutions of 2,2-dibromomalonamide (“DBMAL”) and/or “Biocide B” are then added to the microtiter plate. After preparing the combinations of actives as illustrated below, each well is inoculated with 100 μl of a cell suspension containing ca. 1×10^6 cells per milliliter of a mixture of Pseudomonas aeruginosa, Klebsiella pneumoniae, Staphylococcus aureus, and Bacillus subtilis. The final total volume of medium in each well is 300 μl. Once prepared as described herein, the concentration of each active ranges from 25 ppm to 0.195 ppm as illustrated in Table 1. The resulting matrix allows testing of eight concentrations of each active and 64 combinations of actives in the ratios (of actives).
Controls (not shown) contain the medium with no biocide added. After preparing the combinations of actives as illustrated above, each well is inoculated with 100 μl of a cell suspension containing ca. 1×10^6 cells per milliliter of a mixture of Pseudomonas aeruginosa, Klebsiella pneumoniae, Staphylococcus aureus, and Bacillus subtilis. The final total volume of medium in each well is 300 μl.
Immediately after the microtiter plates are prepared, the optical density (OD) readings for each well is measured at 580 nm and the plates are then incubated at 37° C. for 24 hr. After the incubation period, the plates are gently agitated before OD580 values are collected. The OD580 values at T0 are subtracted from T24 values to determine the total amount of growth (or lack thereof) that occurs. These values are used to calculate the percent inhibition of growth caused by the presence of each biocide and each of the 64 combinations. A 90% inhibition of growth is used as a threshold for calculating synergy index (SI) values with the following equation: Synergy Index=MDBMAL/CDBMAL+MB/CB
where • CDBMAL: Concentration of DBMAL required to inhibit ˜90% of bacterial growth when used alone • CB: Concentration of biocide (B) required to inhibit ˜90% of bacterial growth when used alone. • MDBMAL: Concentration of DBMAL required to inhibit ˜90% of bacterial growth when used in combination with biocide (B). • MB: Concentration of biocide (B) required to inhibit ˜90% of bacterial growth when used in combination with DBMAL The SI values are interpreted as follows: • SI<1: Synergistic combination • SI=1: Additive combination • SI>1: Antagonistic combination
In the Examples below, the amounts of biocides in the solution are measured in mg per liter of solution (mg/l). Since solution densities are approximately 1.00, the mg/l measurement corresponds to weight ppm. Both units may therefore be used interchangeably in the Examples.

As for `CC1(C)C(=O)N(Cl)C(=O)N1Br` [BCDMH, bromochlorodimethylhydantoin], the % Inhibition of growth (usually the relative decrease from the control value, in per cent) is given as 0% (single active at 0.19 mg/l); 0% (single active at 0.39 mg/l); 5% (single active at 0.78 mg/l); 0% (single active at 1.56 mg/l); 2% (single active at 3.13 mg/l); 100% (single active at 6.25 mg/l). For the same compound, the “% Inhibition of growth” value turned out to be 98% (single active at 12.5 mg/l) and 99% (single active at 25.0 mg/l).
`[O][Cl+][O-]` [ClO2, chlorine dioxide]: the “% Inhibition of growth” value runs as follows: (single active at 0.19 mg/l) 12%; (single active at 0.39 mg/l) 26%; (single active at 0.78 mg/l) 35%; (single active at 1.56 mg/l) 63%; (single active at 3.13 mg/l) 75%; (single active at 6.25 mg/l) 99%. Also, the “% Inhibition of growth” value reads like this: (single active at 12.5 mg/l) 100%; (single active at 25.0 mg/l) 98%.
In the case of `NC(=O)C(Br)(Br)C(N)=O` [DBMAL, 2,2-dibromomalonamide], the I90 value was 12.5 mg/L. Besides, under “single active at 12.5 mg/l”, the inhibition (in general, the percentage by which the read-out fell short of the control) at 12.5 µg/mL was 100%; the “% Inhibition of growth” value is 99% and 92%. The inhibition at 25 µg/mL (single active at 25.0 mg/l) came out at 98%. In addition, where the note is “single active at 0.39 mg/l”, the “% Inhibition of growth” value was 4% and 0% and 5% and 8% and 2%. Further, the “% Inhibition of growth” value (single active at 6.25 mg/l) was 9%.
Consider `O=c1nc([O-])n(Cl)c(=O)n1Cl.[Na+]` [DCI, dichloroisocyanurate], for which the “% Inhibition of growth” value by setting is: (single active at 0.19 mg/l) 0%; (single active at 0.39 mg/l) 0%; (single active at 0.78 mg/l) 0%; (single active at 1.56 mg/l) 98%; (single active at 3.13 mg/l) 100%; (single active at 6.25 mg/l) 97%. Moreover, the “% Inhibition of growth” value was 100% (single active at 12.5 mg/l) and 100% (single active at 25.0 mg/l).
As for `OO` [H2O2, hydrogen peroxide], the inhibition at 7.81 µg/mL (single active at 7.81 mg/l) stood at 5%. Besides, the inhibition at 15.63 µg/mL (single active at 15.63 mg/l) stood at 2%. In addition, the inhibition at 31.25 µg/mL (single active at 31.25 mg/l) turned out to be 0%. Also, the inhibition at 62.5 µg/mL (single active at 62.5 mg/l) turned out to be 12%. Also, the inhibition at 125 µg/mL (single active at 125 mg/l) was determined as 6%. Besides, the inhibition at 250 µg/mL (single active at 250 mg/l) was 1%. Further, the inhibition at 500 µg/mL (single active at 500 mg/l) was 100%. The inhibition at 1000 µg/mL (single active at 1,000 mg/l) stood at 89%.
Turning to `OBr` [HOBr, hypobromous acid], the “% Inhibition of growth” value (single active at 0.19 mg/l) came to 0%; the “% Inhibition of growth” value (single active at 0.39 mg/l) was determined as 0%; the “% Inhibition of growth” value (single active at 0.78 mg/l) came to 0%; the “% Inhibition of growth” value (single active at 1.56 mg/l) is given as 0%; the “% Inhibition of growth” value (single active at 3.13 mg/l) is recorded as 22%; the “% Inhibition of growth” value (single active at 6.25 mg/l) is 57%. Further, the “% Inhibition of growth” value runs as follows: (single active at 12.5 mg/l) 99%; (single active at 25.0 mg/l) 100%.
For `NCl` [NH2Cl, monochloramine], the I90 value was found to be 1.56 mg/L. Further, the “% Inhibition of growth” value (single active at 0.19 mg/l) turned out to be 4%. For the same compound, the “% Inhibition of growth” value (single active at 0.39 mg/l) is recorded as 0%. Besides, the “% Inhibition of growth” value (single active at 0.78 mg/l) is reported as 2%. Further, the “% Inhibition of growth” value (single active at 1.56 mg/l) stood at 97%. Besides, the “% Inhibition of growth” value (single active at 3.13 mg/l) was 96%. In addition, the “% Inhibition of growth” value (single active at 6.25 mg/l) turned out to be 94%. Also, the “% Inhibition of growth” value (single active at 12.5 mg/l) is reported as 97%. Besides, the “% Inhibition of growth” value (single active at 25.0 mg/l) was determined as 95%.
As to `O=c1n(Cl)c(=O)n(Cl)c(=O)n1Cl` [TCI, trichloroisocyanurate], the “% Inhibition of growth” value (single active at 0.19 mg/l) was 0%; the “% Inhibition of growth” value (single active at 0.39 mg/l) is 0%; the “% Inhibition of growth” value (single active at 0.78 mg/l) amounted to 0%; the “% Inhibition of growth” value (single active at 1.56 mg/l) stood at 97%; the “% Inhibition of growth” value (single active at 3.13 mg/l) is reported as 96%; the “% Inhibition of growth” value (single active at 6.25 mg/l) came to 99%. Moreover, the “% Inhibition of growth” value (single active at 12.5 mg/l) is given as 97% and the “% Inhibition of growth” value (single active at 25.0 mg/l) is listed as 94%.
